ChEMBL document CHEMBL1123524, “Aminoglycoside antibiotics. 6. Chemical reactions of aminoglycosides with disodium carbenicillin” (1986)
≈ marks a conversion by molar mass, not a printed value.

Legend:
Escherichia coli [1] = experiment: Antibacterial activity expressed as MIC value was determined on Escherichia coli A-20697 organism; assay type: functional
Providencia rettgeri [2] = experiment: ntibacterial activity expressed as MIC value was determined on Proteus rettgeri A-21207 organism; assay type: functional
Escherichia coli [3] = experiment: (§1) Antibacterial activity expressed as MIC value was determined on Escherichia coli A-22356 organism; assay type: functional
Pseudomonas aeruginosa [4] = experiment: Antibacterial activity expressed as MIC value was determined on Pseudomonas aeruginosa A-21509 organism; assay type: functional
Staphylococcus aureus [5] = experiment: Antibacterial activity expressed as MIC value was determined on Staphylococcus aureus A-9537 organism; assay type: functional
Pseudomonas aeruginosa [6] = experiment: Antibacterial activity expressed as MIC value was determined on Pseudomonas aeruginosa A-22233 organism; assay type: functional
Escherichia coli [7] = experiment: Antibacterial activity expressed as MIC value was determined on Escherichia coli A-22045 organism; assay type: functional
Proteus mirabilis = experiment: Antibacterial activity expressed as MIC value was determined on Proteus mirabilis A-9900 organism; assay type: functional
Escherichia coli [8] = experiment: Antibacterial activity expressed as MIC value was determined on Escherichia coli A-20895 organism; assay type: functional
Pseudomonas aeruginosa [9] = experiment: Antibacterial activity expressed as MIC value was determined on Pseudomonas aeruginosa A-20653 organism; assay type: functional
Pseudomonas aeruginosa [10] = experiment: Antibacterial activity expressed as MIC value was determined on Pseudomonas aeruginosa A-21508 organism; assay type: functional
Staphylococcus aureus [11] = experiment: Antibacterial activity expressed as MIC value was determined on Staphylococcus aureus A-22058 organism; assay type: functional
Staphylococcus aureus [12] = experiment: Antibacterial activity expressed as MIC value was determined on Staphylococcus aureus A-22231 organism; assay type: functional
Pseudomonas aeruginosa [13] = experiment: Antibacterial activity expressed as MIC value was determined on Pseudomonas aeruginosa A-20741 organism; assay type: functional
Pseudomonas aeruginosa [14] = experiment: Antibacterial activity expressed as MIC value was determined on Pseudomonas aeruginosa A-21294 organism; assay type: functional
Pseudomonas aeruginosa [15] = experiment: Antibacterial activity expressed as MIC value was determined on Pseudomonas aeruginosa A-9834A organism; assay type: functional
Pseudomonas aeruginosa [16] = experiment: Antibacterial activity expressed as MIC value was determined on Pseudomonas aeruginosa A-20601 organism; assay type: functional
Staphylococcus aureus [17] = experiment: Antibacterial activity expressed as MIC value was determined on Staphylococcus aureus A-22210 organism; assay type: functional
Enterobacter cloacae [18] = experiment: Antibacterial activity expressed as MIC value was determined on Enterobacter cloacae A-21136 organism; assay type: functional
Staphylococcus aureus [19] = experiment: Antibacterial activity expressed as MIC value was determined on Staphylococcus aureus A-21978 organism; assay type: functional
Enterobacter cloacae [20] = experiment: Antibacterial activity expressed as MIC value was determined on Enterobacter cloacae A-9656 organism; assay type: functional
Escherichia coli [21] = experiment: Antibacterial activity expressed as MIC value was determined on Escherichia coli A-20665 organism; assay type: functional
Klebsiella pneumoniae = experiment: Antibacterial activity expressed as MIC value was determined on Klebsiella pneumonia A-20468 organism; assay type: functional
Escherichia coli [22] = experiment: Antibacterial activity expressed as MIC value was determined on Escherichia coli A-20683 organism; assay type: functional
Providencia stuartii [23] = experiment: Antibacterial activity expressed as MIC value was determined on Proteus stuartii A-21210 organism; assay type: functional
Escherichia coli [24] = experiment: Antibacterial activity expressed as MIC value was determined on Escherichia coli A-9632 organism; assay type: functional
Serratia marcescens = experiment: Antibacterial activity expressed as MIC value was determined on Serratia marcescens A-20019 organism; assay type: functional
Pseudomonas aeruginosa [25] = experiment: Antibacterial activity expressed as MIC value was determined on Pseudomonas aeruginosa A-20897 organism; assay type: functional
Enterobacter cloacae [26] = experiment: Antibacterial activity expressed as MIC value was determined on Enterobacter cloacae A-20364 organism; assay type: functional
Escherichia coli [27] = experiment: Antibacterial activity expressed as MIC value was determined on Escherichia coli A-20732 organism; assay type: functional
Escherichia coli [28] = experiment: Antibacterial activity expressed as MIC value was determined on Escherichia coli A-21218 organism; assay type: functional
Providencia stuartii [29] = experiment: Antibacterial activity expressed as MIC value was determined on Proteus stuartii A-20894 organism; assay type: functional
Providencia rettgeri [30] = experiment: (§2) Antibacterial activity expressed as MIC value was determined on Proteus rettgeri A-9637 organism; assay type: functional
Pseudomonas aeruginosa [31] = experiment: Antibacterial activity expressed as MIC value was determined on Pseudomonas aeruginosa A-20717 organism; assay type: functional
Enterobacter cloacae [32] = experiment: Antibacterial activity expressed as MIC value was determined on Enterobacter cloacae A-21006 organism; assay type: functional
Staphylococcus aureus [33] = experiment: Antibacterial activity expressed as MIC value was determined on Staphylococcus aureus A-20240 organism; assay type: functional
Providencia rettgeri [34] = experiment: Antibacterial activity expressed as MIC value was determined on Proteus rettgeri A-21207 organism; assay type: functional
Staphylococcus aureus [35] = experiment: Antibacterial activity expressed as MIC value was determined on Staphylococcus aureusA-22058 organism; assay type: functional, organism-based
Providencia rettgeri [36] = experiment: as §2; assay type: functional; remark: listed apart in the source
Escherichia coli [37] = experiment: as §1; assay type: functional; remark: listed apart in the source

Compound | MIC (Escherichia coli [1]) [µg/mL] | MIC (Pseudomonas aeruginosa [4]) [µg/mL] | MIC (Staphylococcus aureus [5]) [µg/mL] | MIC (Pseudomonas aeruginosa [6]) [µg/mL] | MIC (Escherichia coli [7]) [µg/mL] | MIC (Proteus mirabilis) [µg/mL] | MIC (Escherichia coli [8]) [µg/mL] | MIC (Pseudomonas aeruginosa [9]) [µg/mL] | MIC (Pseudomonas aeruginosa [10]) [µg/mL] | MIC (Staphylococcus aureus [12]) [µg/mL] | MIC (Pseudomonas aeruginosa [13]) [µg/mL] | MIC (Pseudomonas aeruginosa [14]) [µg/mL] | MIC (Pseudomonas aeruginosa [15]) [µg/mL] | MIC (Pseudomonas aeruginosa [16]) [µg/mL] | MIC (Staphylococcus aureus [17]) [µg/mL] | MIC (Enterobacter cloacae [18]) [µg/mL] | MIC (Staphylococcus aureus [19]) [µg/mL] | MIC (Enterobacter cloacae [20]) [µg/mL] | MIC (Escherichia coli [21]) [µg/mL] | MIC (Klebsiella pneumoniae) [µg/mL] | further results
NC[C@H]1O[C@H](O[C@H]2[C@H](O)[C@@H](O[C@H]3O[C@H](CO)[C@@H](O)[C@H](N)[C@H]3O)[C@H](N)C[C@@H]2N)[C@H](O)[C@@H](O)[C@@H]1O [KANAMYCIN] | 2 (≈ 4.13 µM) | > 125 | 0.05 (≈ 0.103 µM) | > 125 | 4 (≈ 8.26 µM) | 2 (≈ 4.13 µM) | 2 (≈ 4.13 µM) | > 125 | > 125 | 8 (≈ 16.5 µM) | > 125 | 63 (≈ 130 µM) | 63 (≈ 130 µM) | 32 (≈ 66 µM) | > 125 | 32 (≈ 66 µM) | > 125 | 1 (≈ 2.06 µM) | > 125 | 0.5 (≈ 1.03 µM) | MIC (Providencia rettgeri [2]): 2 µg/mL (≈ 4.13 µM); MIC (Escherichia coli [3]): 2 µg/mL (≈ 4.13 µM); MIC (Staphylococcus aureus [11]): 125 µg/mL (≈ 258 µM); MIC (Escherichia coli [22]): > 125 µg/mL; MIC (Providencia stuartii [23]): 0.5 µg/mL (≈ 1.03 µM); MIC (Escherichia coli [24]): 2 µg/mL (≈ 4.13 µM); MIC (Serratia marcescens): 1 µg/mL (≈ 2.06 µM); MIC (Pseudomonas aeruginosa [25]): > 125 µg/mL; MIC (Enterobacter cloacae [26]): > 125 µg/mL; MIC (Escherichia coli [27]): 63 µg/mL (≈ 130 µM); MIC (Escherichia coli [28]): 32 µg/mL (≈ 66 µM); MIC (Providencia stuartii [29]): 4 µg/mL (≈ 8.26 µM); MIC (Providencia rettgeri [30]): 0.5 µg/mL (≈ 1.03 µM); MIC (Pseudomonas aeruginosa [31]): 32 µg/mL (≈ 66 µM); MIC (Enterobacter cloacae [32]): > 125 µg/mL; MIC (Staphylococcus aureus [33]): > 125 µg/mL
NC[C@H]1O[C@H](O[C@H]2[C@H](O)[C@@H](O[C@H]3O[C@H](CO)[C@@H](O)[C@H](N)[C@H]3O)[C@H](N)C[C@@H]2N)[C@H](N)C[C@@H]1O [TOBRAMYCIN] | 0.13 (≈ 0.278 µM) | 4 (≈ 8.56 µM) | 0.03 (≈ 0.0642 µM) | 125 (≈ 267 µM) | 4 (≈ 8.56 µM) | 0.5 (≈ 1.07 µM) | 0.5 (≈ 1.07 µM) | 0.13 (≈ 0.278 µM) | 0.06 (≈ 0.128 µM) | 16 (≈ 34.2 µM) | > 125 | 16 (≈ 34.2 µM) | 0.13 (≈ 0.278 µM) | 0.13 (≈ 0.278 µM) | 8 (≈ 17.1 µM) | 16 (≈ 34.2 µM) | 32 (≈ 68.4 µM) | 0.25 (≈ 0.535 µM) | 1 (≈ 2.14 µM) | 0.06 (≈ 0.128 µM) | MIC (Providencia rettgeri [2]): 32 µg/mL (≈ 68.4 µM); MIC (Escherichia coli [3]): 0.25 µg/mL (≈ 0.535 µM); MIC (Staphylococcus aureus [11]): 32 µg/mL (≈ 68.4 µM); MIC (Escherichia coli [22]): 16 µg/mL (≈ 34.2 µM); MIC (Providencia stuartii [23]): 2 µg/mL (≈ 4.28 µM); MIC (Escherichia coli [24]): 0.25 µg/mL (≈ 0.535 µM); MIC (Serratia marcescens): 2 µg/mL (≈ 4.28 µM); MIC (Pseudomonas aeruginosa [25]): 125 µg/mL (≈ 267 µM); MIC (Enterobacter cloacae [26]): 0.5 µg/mL (≈ 1.07 µM); MIC (Escherichia coli [27]): 8 µg/mL (≈ 17.1 µM); MIC (Escherichia coli [28]): 8 µg/mL (≈ 17.1 µM); MIC (Providencia stuartii [29]): 16 µg/mL (≈ 34.2 µM); MIC (Providencia rettgeri [30]): 0.13 µg/mL (≈ 0.278 µM); MIC (Pseudomonas aeruginosa [31]): 0.13 µg/mL (≈ 0.278 µM); MIC (Enterobacter cloacae [32]): 1 µg/mL (≈ 2.14 µM); MIC (Staphylococcus aureus [33]): 0.13 µg/mL (≈ 0.278 µM)
2-{4,6-Diamino-3-[3-amino-6-(1-amino-ethyl)-tetrahydro-pyran-2-yloxy]-2-hydroxy-cyclohexyloxy}-5-methyl-4-methylamino-tetrahydro-pyran-3,5-diol; compound with 6-(2-carboxy-2-phenyl-acetylamino)-3,3-dimethyl-7-oxo-4-thia-1-aza-bicyclo[3.2.0]heptane-2-carbo | 250 | > 250 | 16 | > 250 | > 250 | 250 | > 250 | > 250 | > 250 | 16 | > 250 | > 250 | > 250 | > 250 | > 250 | > 250 | > 250 | > 250 | > 250 | 125 | MIC (Providencia rettgeri [34]): > 250 µg/mL; MIC (Staphylococcus aureus [35]): 32 µg/mL; MIC (Escherichia coli [22]): > 250 µg/mL; MIC (Providencia stuartii [23]): > 250 µg/mL; MIC (Escherichia coli [24]): 250 µg/mL; MIC (Serratia marcescens): > 250 µg/mL; MIC (Pseudomonas aeruginosa [25]): > 250 µg/mL; MIC (Enterobacter cloacae [26]): 250 µg/mL; MIC (Escherichia coli [27]): > 250 µg/mL; MIC (Providencia rettgeri [36]): 32 µg/mL; MIC (Escherichia coli [28]): 250 µg/mL; MIC (Providencia stuartii [29]): > 250 µg/mL; MIC (Escherichia coli [37]): 250 µg/mL; MIC (Pseudomonas aeruginosa [31]): > 250 µg/mL; MIC (Enterobacter cloacae [32]): 250 µg/mL; MIC (Staphylococcus aureus [33]): > 250 µg/mL
